In ChEMBL document CHEMBL1201862, “PubChem BioAssay data set” (2004):
The source made the active and inactive calls.

How the values were obtained:
[1] = Luminescence Cell-Based Dose Confirmation HTS to Identify Activators of 5'UTR Stem-Loop Driven Alpha-Synuclein mRNA Translation in H4 Neuroglioblastoma Cells. [Related pubchem assays: 1829 (Project Summary), 1814 (Primary HTS)]; assay type: functional
[2] = Luminescence Cell-Based Dose Response HTS to Identify Activators of Luciferase Translation or Activity in H4 […] Cells. [Related pubchem assays: 1829 (Project Summary), 1814 (Primary HTS)]; assay type: functional
[3] = target: T1, Streptokinase A (Streptococcus pyogenes serotype M1, UniProt P10520); assay: viability-normalized secreted streptokinase activity reduction – plasminogen activation absorbance, OD405, dose response (AID 1914); assay type: functional, Streptococcus pyogenes M1 GAS;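 note: secreted streptokinase activity via plasminogen activation per viability signal from cell pellet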
T1 sequence (P10520 whole entry): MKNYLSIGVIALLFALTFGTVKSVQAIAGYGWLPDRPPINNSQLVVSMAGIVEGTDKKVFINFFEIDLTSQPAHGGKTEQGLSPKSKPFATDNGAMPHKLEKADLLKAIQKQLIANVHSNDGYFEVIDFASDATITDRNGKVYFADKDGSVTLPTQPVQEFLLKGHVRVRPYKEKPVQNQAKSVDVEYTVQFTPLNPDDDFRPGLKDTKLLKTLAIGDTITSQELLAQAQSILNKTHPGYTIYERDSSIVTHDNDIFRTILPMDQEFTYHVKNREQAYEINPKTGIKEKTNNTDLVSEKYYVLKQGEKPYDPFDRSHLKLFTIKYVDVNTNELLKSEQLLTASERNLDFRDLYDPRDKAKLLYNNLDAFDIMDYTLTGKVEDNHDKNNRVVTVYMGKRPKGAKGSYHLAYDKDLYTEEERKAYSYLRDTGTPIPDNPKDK

[4] = target: Large T antigen (Simian virus 40, UniProt P03070); assay type: functional, Betapolyomavirus macacae;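 note: Confirmatory-stage PubChem screen for compounds that inhibit SV40 T antigen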
Sequence of Large T antigen (P03070 whole entry): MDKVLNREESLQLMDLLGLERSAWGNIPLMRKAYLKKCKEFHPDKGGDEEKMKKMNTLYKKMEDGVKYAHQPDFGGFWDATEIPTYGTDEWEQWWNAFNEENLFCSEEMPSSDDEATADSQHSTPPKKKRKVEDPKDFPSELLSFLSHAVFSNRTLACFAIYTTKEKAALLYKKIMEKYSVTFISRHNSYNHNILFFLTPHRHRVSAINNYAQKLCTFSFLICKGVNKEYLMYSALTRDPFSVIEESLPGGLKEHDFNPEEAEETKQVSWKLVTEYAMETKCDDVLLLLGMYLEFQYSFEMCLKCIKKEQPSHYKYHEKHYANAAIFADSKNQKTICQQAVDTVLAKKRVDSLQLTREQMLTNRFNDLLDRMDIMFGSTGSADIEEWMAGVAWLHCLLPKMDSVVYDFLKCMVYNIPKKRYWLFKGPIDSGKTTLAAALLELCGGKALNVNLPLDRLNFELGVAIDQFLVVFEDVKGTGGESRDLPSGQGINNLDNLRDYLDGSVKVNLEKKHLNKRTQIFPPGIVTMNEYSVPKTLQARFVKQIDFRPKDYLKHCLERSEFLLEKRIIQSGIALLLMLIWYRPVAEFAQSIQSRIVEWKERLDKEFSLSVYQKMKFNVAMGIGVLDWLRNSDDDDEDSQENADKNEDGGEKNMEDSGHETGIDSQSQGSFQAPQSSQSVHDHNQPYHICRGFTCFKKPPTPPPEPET

[5] = target: T2, Sphingosine 1-phosphate receptor 4 (Homo sapiens, UniProt O95977); assay: Fluorescence dose response cell-based high throughput screening assay for antagonists of the Sphingosine 1-Phosphate Receptor 4 (S1P4). [Related pubchem assays: 1524 (Confirmation in triplicates.), 1510 (Primary screen.)]; assay type: functional
T2 sequence (O95977 whole entry): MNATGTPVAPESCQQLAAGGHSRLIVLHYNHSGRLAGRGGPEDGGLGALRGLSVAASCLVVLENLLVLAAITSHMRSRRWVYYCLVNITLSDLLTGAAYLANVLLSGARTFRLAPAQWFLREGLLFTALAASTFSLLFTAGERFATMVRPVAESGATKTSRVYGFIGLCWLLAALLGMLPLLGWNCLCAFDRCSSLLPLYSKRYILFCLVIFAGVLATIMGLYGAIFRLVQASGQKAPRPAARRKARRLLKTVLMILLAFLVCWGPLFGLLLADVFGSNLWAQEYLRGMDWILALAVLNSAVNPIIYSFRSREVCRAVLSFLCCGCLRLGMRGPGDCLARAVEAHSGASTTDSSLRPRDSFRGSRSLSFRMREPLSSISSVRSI

[6] = THP-1 cell cytotoxicity, dose response, cytotoxicity control for non-replicating M. tuberculosis project (AID 489025); assay type: functional
[7] = Vero E6 cell cytotoxicity, dose response, cytotoxicity control for non-replicating M. tuberculosis project, secondary assay (AID 492998); assay type: functional, VeroE6; details: Vero C1008
[8] = system: CHO; assay: CHO cell viability loss, potency – luminescence, cytotoxicity control for TLR9-MyD88 binding inhibitor project, dose response (AID 588339); assay type: functional, cell-based, hamster; details: Cricetulus griseus;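 note: CHO cells stably coexpressing TLR9 and MyD88 fusions from primary screen; compound exposure lasted 48 hours before viability readout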
[9] = target: Heat shock protein HSP 90-alpha (Homo sapiens, UniProt P07900); assay type: functional, organism-based
[10] = reduced cellular PGC1a acetyl-lysine signal – cell-based, cherry-picked samples, dose response (AID 720514); assay type: functional;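 note: potency may reflect raised or lowered acetylation signal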
[11] = target: T3, Histone-lysine N-methyltransferase NSD2 (Homo sapiens, UniProt O96028); assay type: biochemical
T3 sequence (O96028 whole entry): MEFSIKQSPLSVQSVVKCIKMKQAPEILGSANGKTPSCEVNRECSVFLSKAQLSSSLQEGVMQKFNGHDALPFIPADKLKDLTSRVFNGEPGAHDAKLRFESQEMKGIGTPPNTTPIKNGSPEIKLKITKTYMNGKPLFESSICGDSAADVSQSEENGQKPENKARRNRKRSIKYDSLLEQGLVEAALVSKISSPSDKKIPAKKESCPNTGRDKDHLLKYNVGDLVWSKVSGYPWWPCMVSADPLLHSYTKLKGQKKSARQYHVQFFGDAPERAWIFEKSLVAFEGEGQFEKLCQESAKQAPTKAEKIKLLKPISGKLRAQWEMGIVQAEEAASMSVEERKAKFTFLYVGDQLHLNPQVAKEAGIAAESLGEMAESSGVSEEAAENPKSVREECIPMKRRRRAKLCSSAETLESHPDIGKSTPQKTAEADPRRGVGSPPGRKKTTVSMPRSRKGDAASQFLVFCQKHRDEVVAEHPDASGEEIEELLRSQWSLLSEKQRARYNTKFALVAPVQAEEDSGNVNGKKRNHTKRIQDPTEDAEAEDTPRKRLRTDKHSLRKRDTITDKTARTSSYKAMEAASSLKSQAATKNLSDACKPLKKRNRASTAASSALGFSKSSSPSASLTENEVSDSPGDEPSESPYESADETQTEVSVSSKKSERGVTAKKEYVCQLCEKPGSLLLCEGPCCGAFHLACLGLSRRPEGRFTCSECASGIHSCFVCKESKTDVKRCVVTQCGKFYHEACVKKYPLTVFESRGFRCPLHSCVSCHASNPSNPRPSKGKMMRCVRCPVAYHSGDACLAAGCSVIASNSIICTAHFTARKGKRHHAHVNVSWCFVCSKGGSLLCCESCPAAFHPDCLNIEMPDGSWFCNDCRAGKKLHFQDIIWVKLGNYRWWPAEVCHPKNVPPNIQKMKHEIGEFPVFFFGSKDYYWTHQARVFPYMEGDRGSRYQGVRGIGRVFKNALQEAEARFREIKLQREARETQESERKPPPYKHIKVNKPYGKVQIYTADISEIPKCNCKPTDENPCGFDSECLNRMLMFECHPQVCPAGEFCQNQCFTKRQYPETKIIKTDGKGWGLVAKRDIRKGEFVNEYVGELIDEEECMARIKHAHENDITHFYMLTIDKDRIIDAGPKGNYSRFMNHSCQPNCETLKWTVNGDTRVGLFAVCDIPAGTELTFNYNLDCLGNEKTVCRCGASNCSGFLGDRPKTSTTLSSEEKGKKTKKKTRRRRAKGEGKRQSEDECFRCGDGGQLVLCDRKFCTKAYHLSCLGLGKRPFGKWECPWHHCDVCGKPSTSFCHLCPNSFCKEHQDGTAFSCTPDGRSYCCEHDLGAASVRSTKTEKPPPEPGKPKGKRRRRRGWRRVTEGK

[12] = target: SUMO-activating enzyme (Homo sapiens, UniProt Q9UBT2); assay: blockers of UBC9-mediated SUMO conjugation – biochemical, AlphaScreen, SUMOylation inhibitor project, confirmation (AID 2018); assay type: functional
Sequence of SUMO-activating enzyme (Q9UBE0 whole entry): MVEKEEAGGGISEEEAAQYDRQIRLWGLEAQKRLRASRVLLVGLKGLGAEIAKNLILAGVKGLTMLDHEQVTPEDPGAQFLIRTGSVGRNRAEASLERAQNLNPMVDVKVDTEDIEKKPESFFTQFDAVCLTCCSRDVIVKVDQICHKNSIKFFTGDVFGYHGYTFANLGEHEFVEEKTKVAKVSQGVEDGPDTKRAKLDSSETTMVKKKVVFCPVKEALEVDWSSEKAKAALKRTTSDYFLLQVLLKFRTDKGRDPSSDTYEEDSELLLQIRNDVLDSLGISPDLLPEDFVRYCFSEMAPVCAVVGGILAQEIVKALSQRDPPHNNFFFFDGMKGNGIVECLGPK
Sequence of SUMO-activating enzyme (Q9UBT2 whole entry): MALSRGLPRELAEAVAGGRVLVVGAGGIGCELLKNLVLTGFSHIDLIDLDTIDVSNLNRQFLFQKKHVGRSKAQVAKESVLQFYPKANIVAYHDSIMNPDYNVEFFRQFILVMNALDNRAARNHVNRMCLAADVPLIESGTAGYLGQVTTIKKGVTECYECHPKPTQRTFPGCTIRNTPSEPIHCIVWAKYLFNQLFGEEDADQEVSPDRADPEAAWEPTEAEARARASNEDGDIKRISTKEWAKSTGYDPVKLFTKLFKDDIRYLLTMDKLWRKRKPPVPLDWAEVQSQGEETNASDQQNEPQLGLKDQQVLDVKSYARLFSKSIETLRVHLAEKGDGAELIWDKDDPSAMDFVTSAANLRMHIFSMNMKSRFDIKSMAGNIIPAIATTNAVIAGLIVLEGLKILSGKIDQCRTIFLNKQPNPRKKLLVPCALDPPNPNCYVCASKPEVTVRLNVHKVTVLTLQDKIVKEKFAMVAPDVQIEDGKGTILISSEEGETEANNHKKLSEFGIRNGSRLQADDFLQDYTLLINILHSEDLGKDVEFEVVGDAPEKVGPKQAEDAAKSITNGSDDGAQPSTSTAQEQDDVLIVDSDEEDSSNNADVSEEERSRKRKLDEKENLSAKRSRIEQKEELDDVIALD

Compound | EC50 [1] | EC50 [2] | EC50 [3] | IC50 [4] | IC50 [5] | CC50 [6] | CC50 [7] | IC50 [8] | AC50 [9] | AC50 [10] | AC50 [11] | IC50 [12]
O=C(Nc1ccccc1)c1nnsc1[S+]([O-])c1ccc(Cl)cc1 (stereo not drawn) | 8.7 µM (active) | 4.31 µM (active) | 1.06 µM (active) | 25 µM (active) | 1.15 µM (active) | 23.4 µM (active) | 13.1 µM (active) | 3.46 µM (active) | < 0.195 µM (active) | 10.3 µM (active) | – | –
CC1OC(Nc2cccc3ccccc23)C(O)C(O)C1O (stereo not drawn) | – | – | – | – | – | – | – | – | – | – | 9.24 µM (active) | –
O=C1C=C(Nc2ccccc2)c2ccccc2C1=O | – | – | > 150 µM (not active) | – | – | – | – | – | – | – | – | 1.47 µM (active)
